Common to all, as to assay: B1 Post-emergence efficacy, glasshouse pot test
Assay type in all cases: in vivo
What all share (settings): post-emergence application, 1000 g/ha, evaluated after 13 days

The subject of assay [1] is Echinochloa crus-galli (ECHCG). The method, then:
(§1) B1 Post-Emergence Efficacy Seeds of a variety of test species are sown in standard soil in pots:—Solanum nigrum (SOLNI), Amaranthus retoflexus (AMARE), Setaria faberi (SETFA), Alopecurus myosuroides (ALOMY), Echinochloa crus-galli (ECHCG), Ipomoea hederacea (IPOHE), Lolium perenne (LOLPE). After 8 days cultivation (post-emergence) under controlled conditions in a glasshouse (at 24/16° C., day/night; 14 hours light; 65% humidity), the plants are sprayed with an aqueous spray solution derived from the formulation of the technical active ingredient in acetone/water (50:50) solution containing 0.5% Tween 20 (polyoxyethelyene sorbitan monolaurate, CAS RN 9005-64-5). Compounds are applied at 1000 g/ha. The test plants are then grown in a glasshouse under controlled conditions in a glasshouse (at 24/16° C., day/night; 14 hours light; 65% humidity) and watered twice daily. After 13 days, the test is evaluated for the percentage damage caused to the plant. The biological activities are assessed on a five point scale (5=80-100%; 4=60-79%; 3=40-59%; 2=20-39%; 1=0-19%). A blank value in the table is indicative that the compound was not tested on that species.

The next assay deals with Setaria faberi (SETFA). The method, then: as §1
In the next assay the test system is Lolium perenne (LOLPE). How it is done:
as §1

In assay [2] the test system is Amaranthus retoflexus (AMARE). How it is done: as §1
For assay [3], the system named is Ipomoea hederacea (IPOHE). The method, then: as §1
Another assay relates to Solanum nigrum (SOLNI). How it is done:
as §1

Turning to `Cn1nc(C2CC2)c(O)c(-c2c(C(F)(F)F)ccc(Cl)c2OCc2ccccc2)c1=O` [Compound 1.070], the “ECHCG: percentage damage caused to the plant (five point scale)” value (shortened to “ECHCG: percentage damage caused”) in assay [1] is on record as 5 (5=80-100%). Also, the “SETFA: percentage damage caused to the plant (five point scale)” value (“SETFA: percentage damage caused” below) with Setaria faberi (SETFA) is listed as 5 (5=80-100%). Moreover, the “LOLPE: percentage damage caused to the plant (five point scale)” value (from here on “LOLPE: percentage damage caused”) with Lolium perenne (LOLPE) was 5 (5=80-100%). Further, the “AMARE: percentage damage caused to the plant (five point scale)” value (shortened to “AMARE: percentage damage caused”) in assay [2] was 5 (5=80-100%). In addition, the “IPOHE: percentage damage caused to the plant (five point scale)” value (“IPOHE: percentage damage caused” below) in assay [3] is 5 (5=80-100%). Also, in the assay with Solanum nigrum (SOLNI), the “SOLNI: percentage damage caused to the plant (five point scale)” value (from here on “SOLNI: percentage damage caused”) was 5 (5=80-100%).
Consider `Cn1nc(C(F)(F)F)c(O)c(-c2c(C(F)(F)F)ccc(Cl)c2OCc2ccccc2)c1=O` [Compound 1.071], for which the “ECHCG: percentage damage caused” value in assay [1] was 4 (4=60-79%). The “SETFA: percentage damage caused” value in the assay with Setaria faberi (SETFA) is reported as 5 (5=80-100%). Also, the “LOLPE: percentage damage caused” value in the assay with Lolium perenne (LOLPE) was 3 (3=40-59%). Further, the “AMARE: percentage damage caused” value in assay [2] is listed as 3 (3=40-59%). In addition, the “IPOHE: percentage damage caused” value in assay [3] is listed as 5 (5=80-100%). Besides, the “SOLNI: percentage damage caused” value with Solanum nigrum (SOLNI) is given as 5 (5=80-100%).
In the case of `CCc1nn(C)c(=O)c(-c2c(C(F)(F)F)ccc(Cl)c2OCc2ccccc2)c1O` [Compound 1.072], the “ECHCG: percentage damage caused” value in assay [1] is listed as 4 (4=60-79%). In addition, the “SETFA: percentage damage caused” value in the assay with Setaria faberi (SETFA) is recorded as 5 (5=80-100%). Moreover, the “LOLPE: percentage damage caused” value in the assay with Lolium perenne (LOLPE) is on record as 2 (2=20-39%). Also, the “AMARE: percentage damage caused” value in assay [2] is on record as 2 (2=20-39%). The “IPOHE: percentage damage caused” value in assay [3] is listed as 5 (5=80-100%). Besides, the “SOLNI: percentage damage caused” value in the assay with Solanum nigrum (SOLNI) was 5 (5=80-100%).
`Cc1nn(C)c(=O)c(-c2c(C(F)(F)F)ccc(Cl)c2OCc2ccccc2)c1O` [Compound 1.073]: in assay [1], the “ECHCG: percentage damage caused” value is on record as 5 (5=80-100%). Moreover, the “SETFA: percentage damage caused” value in the assay with Setaria faberi (SETFA) is given as 5 (5=80-100%). Also, the “LOLPE: percentage damage caused” value in the assay with Lolium perenne (LOLPE) is 3 (3=40-59%). Moreover, the “AMARE: percentage damage caused” value in assay [2] is recorded as 3 (3=40-59%). The “IPOHE: percentage damage caused” value in assay [3] is 5 (5=80-100%). In the assay with Solanum nigrum (SOLNI), the “SOLNI: percentage damage caused” value is 5 (5=80-100%).
Take `Cn1nc(C(F)(F)F)c(O)c(-c2c(F)ccc(Cl)c2OCc2ccccc2)c1=O` [Compound 1.074]: the “ECHCG: percentage damage caused” value in assay [1] is given as 5 (5=80-100%). The “SETFA: percentage damage caused” value in the assay with Setaria faberi (SETFA) is 5 (5=80-100%). For the same compound, the “LOLPE: percentage damage caused” value in the assay on Lolium perenne (LOLPE) was 5 (5=80-100%). Besides, in assay [2], the “AMARE: percentage damage caused” value is recorded as 5 (5=80-100%). Further, the “IPOHE: percentage damage caused” value in assay [3] is 5 (5=80-100%). In addition, in the assay with Solanum nigrum (SOLNI), the “SOLNI: percentage damage caused” value is given as 5 (5=80-100%).
`Cn1nc(C(F)(F)F)c(O)c(-c2c(Cl)ccc(Cl)c2OCc2ccccc2)c1=O` [Compound 1.075]: the “ECHCG: percentage damage caused” value in assay [1] was 5 (5=80-100%). The “SETFA: percentage damage caused” value in the assay on Setaria faberi (SETFA) is recorded as 5 (5=80-100%). Further, the “LOLPE: percentage damage caused” value with Lolium perenne (LOLPE) is given as 4 (4=60-79%). The “AMARE: percentage damage caused” value in assay [2] is reported as 4 (4=60-79%). Besides, in assay [3], the “IPOHE: percentage damage caused” value is given as 5 (5=80-100%). In addition, in the assay on Solanum nigrum (SOLNI), the “SOLNI: percentage damage caused” value was 5 (5=80-100%).
Consider `Cc1ccc(Cl)c(OCc2ccccc2)c1-c1c(O)c(C)nn(C)c1=O` [Compound 1.076], for which the “ECHCG: percentage damage caused” value in assay [1] is 5 (5=80-100%). The “SETFA: percentage damage caused” value in the assay with Setaria faberi (SETFA) was 5 (5=80-100%). Besides, the “LOLPE: percentage damage caused” value in the assay on Lolium perenne (LOLPE) was 4 (4=60-79%). Further, the “AMARE: percentage damage caused” value in assay [2] is given as 2 (2=20-39%). In assay [3], the “IPOHE: percentage damage caused” value was 5 (5=80-100%). Moreover, the “SOLNI: percentage damage caused” value with Solanum nigrum (SOLNI) was 5 (5=80-100%).
On to `C#CCn1nc(C)c(O)c(-c2c(F)ccc(Cl)c2OCc2ccccc2)c1=O` [Compound 1.077], for which, in assay [1], the “ECHCG: percentage damage caused” value was 5 (5=80-100%). The “SETFA: percentage damage caused” value with Setaria faberi (SETFA) is 5 (5=80-100%). Besides, in the assay on Lolium perenne (LOLPE), the “LOLPE: percentage damage caused” value was 5 (5=80-100%). In assay [2], the “AMARE: percentage damage caused” value is 5 (5=80-100%). Besides, the “IPOHE: percentage damage caused” value in assay [3] is on record as 5 (5=80-100%). The “SOLNI: percentage damage caused” value with Solanum nigrum (SOLNI) is on record as 5 (5=80-100%).
Take `Cn1nc(N)c(O)c(-c2c(F)ccc(Cl)c2OCc2ccccc2)c1=O` [Compound 1.078]: the “ECHCG: percentage damage caused” value in assay [1] was 2 (2=20-39%). In addition, the “SETFA: percentage damage caused” value in the assay on Setaria faberi (SETFA) was 3 (3=40-59%). Also, the “LOLPE: percentage damage caused” value in the assay with Lolium perenne (LOLPE) was 1 (1=0-19%). Also, the “AMARE: percentage damage caused” value in assay [2] is given as 3 (3=40-59%). For the same compound, in assay [3], the “IPOHE: percentage damage caused” value is 4 (4=60-79%). Further, the “SOLNI: percentage damage caused” value in the assay with Solanum nigrum (SOLNI) was 5 (5=80-100%).
As for `Cn1nc(S(C)(=O)=O)c(O)c(-c2c(F)ccc(Cl)c2OCc2ccccc2)c1=O` [Compound 1.079], in assay [1], the “ECHCG: percentage damage caused” value is 1 (1=0-19%). For the same compound, the “SETFA: percentage damage caused” value in the assay with Setaria faberi (SETFA) is listed as 1 (1=0-19%). In addition, the “LOLPE: percentage damage caused” value in the assay on Lolium perenne (LOLPE) is reported as 1 (1=0-19%). In addition, the “AMARE: percentage damage caused” value in assay [2] was 1 (1=0-19%). Also, in assay [3], the “IPOHE: percentage damage caused” value is 5 (5=80-100%). The “SOLNI: percentage damage caused” value with Solanum nigrum (SOLNI) is listed as 5 (5=80-100%).
For the compound `Cn1nc([S+](C)[O-])c(O)c(-c2c(F)ccc(Cl)c2OCc2ccccc2)c1=O` (stereo not drawn) [Compound 1.080], the “ECHCG: percentage damage caused” value in assay [1] was 1 (1=0-19%). The “SETFA: percentage damage caused” value in the assay on Setaria faberi (SETFA) is reported as 1 (1=0-19%). The “LOLPE: percentage damage caused” value with Lolium perenne (LOLPE) was 2 (2=20-39%). Besides, in assay [2], the “AMARE: percentage damage caused” value is listed as 2 (2=20-39%). Also, in assay [3], the “IPOHE: percentage damage caused” value is 5 (5=80-100%). In addition, in the assay on Solanum nigrum (SOLNI), the “SOLNI: percentage damage caused” value is on record as 5 (5=80-100%).
For `Cn1nc(N)c(O)c(-c2c(Cl)ccc(Cl)c2OCc2ccccc2)c1=O` [Compound 1.081], the “ECHCG: percentage damage caused” value in assay [1] is listed as 2 (2=20-39%). Also, the “SETFA: percentage damage caused” value in the assay with Setaria faberi (SETFA) is listed as 4 (4=60-79%). Moreover, in the assay on Lolium perenne (LOLPE), the “LOLPE: percentage damage caused” value is 2 (2=20-39%). Further, the “AMARE: percentage damage caused” value in assay [2] is listed as 3 (3=40-59%). For the same compound, the “IPOHE: percentage damage caused” value in assay [3] was 4 (4=60-79%). Moreover, in the assay with Solanum nigrum (SOLNI), the “SOLNI: percentage damage caused” value is given as 5 (5=80-100%).
On to `Cn1nc(S(C)(=O)=O)c(O)c(-c2c(Cl)ccc(Cl)c2OCc2ccccc2)c1=O` [Compound 1.082], for which the “ECHCG: percentage damage caused” value in assay [1] is given as 1 (1=0-19%). Also, in the assay with Setaria faberi (SETFA), the “SETFA: percentage damage caused” value is 2 (2=20-39%). Further, the “LOLPE: percentage damage caused” value with Lolium perenne (LOLPE) is recorded as 1 (1=0-19%). Moreover, the “AMARE: percentage damage caused” value in assay [2] is reported as 1 (1=0-19%). In addition, the “IPOHE: percentage damage caused” value in assay [3] is given as 3 (3=40-59%). Also, the “SOLNI: percentage damage caused” value with Solanum nigrum (SOLNI) was 5 (5=80-100%).
Regarding `Cn1nc([S+](C)[O-])c(O)c(-c2c(Cl)ccc(Cl)c2OCc2ccccc2)c1=O` (stereo not drawn) [Compound 1.083], the “ECHCG: percentage damage caused” value in assay [1] is on record as 1 (1=0-19%). For the same compound, the “SETFA: percentage damage caused” value with Setaria faberi (SETFA) is 3 (3=40-59%). Further, in the assay with Lolium perenne (LOLPE), the “LOLPE: percentage damage caused” value is 2 (2=20-39%). In addition, the “AMARE: percentage damage caused” value in assay [2] is listed as 1 (1=0-19%). Moreover, the “IPOHE: percentage damage caused” value in assay [3] is 5 (5=80-100%). Moreover, the “SOLNI: percentage damage caused” value in the assay on Solanum nigrum (SOLNI) is on record as 5 (5=80-100%).
With `CSc1nn(C)c(=O)c(-c2c(F)ccc(Cl)c2OCc2ccccc2)c1O` [Compound 1.084], the “ECHCG: percentage damage caused” value in assay [1] was 1 (1=0-19%). Moreover, the “SETFA: percentage damage caused” value with Setaria faberi (SETFA) is given as 2 (2=20-39%). Besides, the “LOLPE: percentage damage caused” value with Lolium perenne (LOLPE) is reported as 4 (4=60-79%). In addition, in assay [2], the “AMARE: percentage damage caused” value is recorded as 3 (3=40-59%). Moreover, the “IPOHE: percentage damage caused” value in assay [3] is 5 (5=80-100%). Also, the “SOLNI: percentage damage caused” value in the assay on Solanum nigrum (SOLNI) is given as 5 (5=80-100%).
Take `CN(C)c1nn(C)c(=O)c(-c2c(F)ccc(Cl)c2OCc2ccccc2)c1O` [Compound 1.085]: the “ECHCG: percentage damage caused” value in assay [1] is recorded as 4 (4=60-79%). For the same compound, the “SETFA: percentage damage caused” value in the assay on Setaria faberi (SETFA) is on record as 3 (3=40-59%). For the same compound, the “LOLPE: percentage damage caused” value in the assay with Lolium perenne (LOLPE) is 5 (5=80-100%). For the same compound, in assay [2], the “AMARE: percentage damage caused” value was 5 (5=80-100%). Further, the “IPOHE: percentage damage caused” value in assay [3] was 5 (5=80-100%). Besides, the “SOLNI: percentage damage caused” value in the assay with Solanum nigrum (SOLNI) is given as 5 (5=80-100%).
